Experimental data: patent US20260373248A1, “DEGRADABLE PEPTOIDS” (Medici Therapeutics, Inc., priority 2023, published 2026)
Non-standard residues stand in square brackets, D forms with d. Residues, ends and D or L forms follow the SMILES beside them. *: point of attachment. Gly(N-(3-decanoyloxypropyl)) = CCCCCCCCCC(=O)OCCCNCC(=O)O; Gly(N-(CH2)3O-octanoyl) = CCCCCCCC(=O)OCCCNCC(=O)O; N(3-imidazol-1-ylpropyl)Gly = O=C(O)CNCCCn1ccnc1; Gly(N-3-morpholinopropyl) = O=C(O)CNCCCN1CCOCC1; N(2-ethylhexyl)Gly = CCCCC(CC)CNCC(=O)O; Gly(N-dodecyl) = CCCCCCCCCCCCNCC(=O)O; N(octyl)Gly = CCCCCCCCNCC(=O)O; NHexGly = CCCCCCNCC(=O)O; For = O=C*

Experiments:
[1] = Delivery vehicle size and polydispersity by dynamic light scattering; assay type: physicochemical
Procedure, shortened: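 LNPs made by microfluidic mixing of ethanolic peptoid/DSPC/cholesterol/DMG-PEG2000 (20:1.79:7.16:1.84 by weight) with mRNA in 10 mM citrate pH 5.0 at 1:3 by volume, then dialyzed overnight at 4 °C against tris-sucrose pH 7.4. Size and PDI read by dynamic light scattering in PBS.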

[2] = tested on: mRNA; assay: mRNA encapsulation (modified Quant-iT RiboGreen assay); assay type: physicochemical; conditions: for mean percent encapsulation of RNA: RiboGreen, without vs with Triton X-100; for % Encapsulation: mRNA
Procedure, shortened: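 Peptoid nanoparticles were incubated with Triton X-100 for 10 min to release entrapped mRNA, then mixed with RiboGreen reagent and read by fluorescence (ex 485 nm/em 530 nm). Percent encapsulation was derived from the ratio of fluorescence without versus with Triton X-100.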

[3] = tested on: firefly luciferase; assay: In vivo firefly luciferase expression after intravenous injection of fLuc mRNA delivery vehicles (IVIS imaging); design: species or system female Balb/c mice; conditions: for Total Flux: mice, 2.5 ug fLuc mRNA intravenously, 6 hours post-injection; for Total Flux (luciferase expression): fLuc mRNA, intravenous, Balb/c mice
Procedure, shortened: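 Female Balb/c mice (6-8 weeks) given 2.5 ug fLuc mRNA in Nutshells IV. At 6 hours, IP D-luciferin (30 mg/mL, 10 μL/g) under isoflurane; IVIS imaging 10 minutes later, then harvested organs imaged ex vivo. Read-out: total photon flux in regions of interest.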

[4] = tested on: hEPO; assay: Quantification of hEPO in serum after IV injection of mRNA (Human EPO ELISA); assay type: in vivo; conditions: Balb/c mice, 2.5 μg mRNA IV, serum after 6 hours
Procedure, shortened: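 Balb/c mice received 2.5 μg mRNA encoding human EPO by IV injection; serum was collected after 6 hours. hEPO was measured by sandwich ELISA (biotin-conjugate, streptavidin-HRP, TMB, A450) against kit standards (mIU/mL) and an external standard (ng/mL), with values interpolated and corrected for dilution.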

[5] = Peptoid quantity remaining in liver by HPLC-TOF mass spectrometry; assay type: in vivo; conditions: liver homogenate
Procedure, shortened: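 Whole liver weighed; 20 mg tissue bead-homogenized in IPA/MeOH (8/2) with internal standard, centrifuged, supernatant run on BEH C8 HPLC-TOF MS. Peptoid concentration derived from linear calibration curve (0.2-50 μg/g) prepared in spiked untreated liver.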

[6] = tested on: luciferase; assay: Luciferase expression after local (intramuscular or subcutaneous) administration of mRNA; assay type: in vivo; conditions: mRNA 0.01 mpk, 6 hours; for IM Flux: intramuscular; for SC Flux: subcutaneous
Procedure, shortened: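 Female Balb/c mice (6-8 weeks) received fLuc mRNA in aminolipidated peptoid Nutshells at 0.01 mpk subcutaneously or intramuscularly, or 0.1 mpk intratumorally. At 6 hours, anesthetized mice were given D-luciferin IP and imaged 10 minutes later; harvested organs were also imaged and total photon flux quantified in regions of interest.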

[7] = DLS in PBS, peptoid:DSPC:Cholesterol:DMG-PEG2000 weight ratio 20:1.79:7.16:1.84, mRNA

Compound	PDI [1, 7]	Particle Size [1, 7]	mean percent encapsulation of RNA [2]	% of injected dose remaining in liver [5]	Particle Size ([1]; formulation recipe F2)	% Encapsulation ([2]; formulation recipe F2)	Particle Size ([1]; formulation recipe R5)	% Encapsulation ([2]; formulation recipe R5)	Total Flux [3]	hEPO [4]	IM Flux [6]	SC Flux [6]	Total Flux (luciferase expression) ([3]; formulation recipe F2)	Total Flux (luciferase expression) ([3]; formulation recipe R5)
CCCCCCCCCC(=O)OCCCN(CC(=O)N(CCCOC(=O)CCCCCCCCC)CC(=O)N(CCCCCC)CC(=O)N(CCCOC(=O)CCCCCCCCC)CC(=O)N(CCCOC(=O)CCCCCCCCC)CC(=O)N(CCCCCC)CC(N)=O)C(=O)CN(C=O)CCCN1CCOCC1 [Compound 108] (For-[Gly(N-3-morpholinopropyl)][Gly(N-(3-decanoyloxypropyl))][Gly(N-(3-decanoyloxypropyl))][NHexGly][Gly(N-(3-decanoyloxypropyl))][Gly(N-(3-decanoyloxypropyl))][NHexGly]-NH2)	0.263	96.7 nm	49.9%	7.35%	95.3 nm	60.1%			4.91E+09 p/s	377 ng/mL	1.25E+08 p/s	1.74E+08 p/s	1.47E+09 p/s	
CCCCCCCCCC(=O)OCCCN(CC(=O)N(CCCOC(=O)CCCCCCCCC)CC(=O)N(CCCCCC)CC(=O)N(CCCOC(=O)CCCCCCCCC)CC(=O)N(CCCOC(=O)CCCCCCCCC)CC(=O)N(CCCCCC)CC(N)=O)C(=O)CNCCCn1ccnc1 [Compound 109] (H-[N(3-imidazol-1-ylpropyl)Gly][Gly(N-(3-decanoyloxypropyl))][Gly(N-(3-decanoyloxypropyl))][NHexGly][Gly(N-(3-decanoyloxypropyl))][Gly(N-(3-decanoyloxypropyl))][NHexGly]-NH2)	0.173	87.5 nm	69.5%	48.80%					1.85E+09 p/s	108 ng/mL	3.97E+07 p/s	1.00E+08 p/s		
CCCCCCCCCCCCN(C=O)CC(=O)N(CCCOC(=O)CCCCCCC)CC(=O)N(CC(=O)N(CCCN1CCOCC1)CC(=O)N(CC(=O)N(CCCOC(=O)CCCCCCC)CC(=O)N(CCCCCCCCCCCC)CC(N)=O)CC(CC)CCCC)CC(CC)CCCC (stereo not drawn) [Compound 116] (For-[Gly(N-dodecyl)][Gly(N-(CH2)3O-octanoyl)][N(2-ethylhexyl)Gly][Gly(N-3-morpholinopropyl)][N(2-ethylhexyl)Gly][Gly(N-(CH2)3O-octanoyl)][Gly(N-dodecyl)]-NH2)	1.000	88.9 nm	32.6%	15.67%	71.4 nm	67.8%			3.82E+09 p/s	269 ng/mL	7.83E+07 p/s	3.53E+08 p/s	1.60E+09 p/s	

The next lines start with results.

PDI [1, 7]	Particle Size [1, 7]	mean percent encapsulation of RNA [2]	% of injected dose remaining in liver [5]	Particle Size ([1]; formulation recipe F2)	% Encapsulation ([2]; formulation recipe F2)	Particle Size ([1]; formulation recipe R5)	% Encapsulation ([2]; formulation recipe R5)	Compound	Total Flux [3]	hEPO [4]	IM Flux [6]	SC Flux [6]	Total Flux (luciferase expression) ([3]; formulation recipe F2)	Total Flux (luciferase expression) ([3]; formulation recipe R5)
0.140	77.4 nm	96.1%	47.20%					CCCCCCCCCC(=O)OCCCN(CC(=O)N(CC(=O)N(CC(=O)N(CCCOC(=O)CCCCCCCCC)CC(=O)N(CC(N)=O)CC(CC)CCCC)CC(CC)CCCC)CC(CC)CCCC)C(=O)CN(CC(CC)CCCC)C(=O)CNCCCn1ccnc1 (stereo not drawn) [Compound 107] (H-[N(3-imidazol-1-ylpropyl)Gly][N(2-ethylhexyl)Gly][Gly(N-(3-decanoyloxypropyl))][N(2-ethylhexyl)Gly][N(2-ethylhexyl)Gly][Gly(N-(3-decanoyloxypropyl))][N(2-ethylhexyl)Gly]-NH2)	2.01E+09 p/s	268 ng/mL	7.22E+07 p/s	7.41E+07 p/s		
0.088	102.9 nm	50.5%	5.52%					CCCCCCCCCC(=O)OCCCN(CC(=O)N(CC(N)=O)CC(CC)CCCC)C(=O)CN(CCCCCCCC)C(=O)CN(CC(CC)CCCC)C(=O)CN(CCCOC(=O)CCCCCCCCC)C(=O)CN(CCCCCCCC)C(=O)CN(C=O)CCCN1CCOCC1 (stereo not drawn) [Compound 110] (For-[Gly(N-3-morpholinopropyl)][N(octyl)Gly][Gly(N-(3-decanoyloxypropyl))][N(2-ethylhexyl)Gly][N(octyl)Gly][Gly(N-(3-decanoyloxypropyl))][N(2-ethylhexyl)Gly]-NH2)	2.54E+09 p/s	333 ng/mL	1.43E+08 p/s	2.34E+08 p/s		
0.138	95.4 nm	39.2%	0.19%			87.6 nm	71.6%	CCCCCCCCCC(=O)OCCCN(C=O)CC(=O)N(CCCOC(=O)CCCCCCCCC)CC(=O)N(CC(=O)N(CCCN1CCOCC1)CC(=O)N(CCCOC(=O)CCCCCCCCC)CC(=O)N(CCCOC(=O)CCCCCCCCC)CC(=O)N(CC(N)=O)CC(CC)CCCC)CC(CC)CCCC (stereo not drawn) [Compound 112] (For-[Gly(N-(3-decanoyloxypropyl))][Gly(N-(3-decanoyloxypropyl))][N(2-ethylhexyl)Gly][Gly(N-3-morpholinopropyl)][Gly(N-(3-decanoyloxypropyl))][Gly(N-(3-decanoyloxypropyl))][N(2-ethylhexyl)Gly]-NH2)	1.13E+09 p/s	345 ng/mL	1.80E+08 p/s	2.33E+08 p/s		2.67E+08 p/s
